Measurements from US11052063B2, “Methods of reducing RLP-C” (Amarin Pharmaceuticals Ireland Limited, priority 2014, dated 2021).

Test system: Serum RLP-C
Assay: 12-week placebo-controlled study (ANCHOR), serum RLP-C by immunoseparation assay, statin-treated patients with fasting TG ≥200 and <500 mg/dl
Type: in vivo, human
Details: for Median Change from Baseline in RLP-C vs. Placebo: Hodges-Lehmann estimate; for Median Change from Baseline in RLP-C vs. Placebo / RLP-C Concentration End of Treatment: week 12; for RLP-C Concentration Change: median change from baseline to week 12; for RLP-C Concentration Baseline / RLP-C Concentration End of Treatment: median; for RLP-C Concentration Baseline: before treatment
Procedure: A multi-center, placebo-controlled, randomized, double-blind, 12-week study was performed to evaluate the efficacy and safety of >96% E-EPA in patients with fasting triglyceride levels≥200 mg/dl and <500 mg/dl despite statin therapy (the mean of two qualifying entry values needed to be ≥185 mg/dl and at least one of the values needed to be ≥200 mg/dl). The primary objective of the study was to determine the efficacy of >96%, by weight of all fatty acids present, ethyl-EPA (“AMR101”) 2 g daily and 4 g daily, compared to placebo, in lowering fasting TG levels in patients with high risk for cardiovascular disease and with fasting TG levels≥200 mg/dl and <500 mg/dl, despite treatment to LDL-C goal on statin therapy. The population for this study was men and women>18 years of age with a body mass index≤45 kg/m^2 with fasting TG levels greater than or equal to 200 mg/dl and less than 500 mg/dl and on a stable does of statin therapy (with or without ezetimibe). The statin was atorvostatin, rosuvastatin or simvastatin. The dose of statin must have been stable for ≥4 weeks prior to the LDL-C/TG baseline qualifying measurement for randomization. The statin dose was optimized such that the patients are at their LDL-C goal at the LDL-C/TG baseline qualifying measurements. The same statin at the same dose was continued until the study ended. Approximately 702 patients were randomized at approximately 80 centers in the U.S. The study was a 18- to 20-week, Phase 3, multi-center study consisting of 2 study periods: (1) A 6- to 8-week screening period that included a diet and lifestyle stabilization, a non-statin lipid-altering treatment washout, and an LDL-C and TG qualifying period and (2) A 12-week, double-blind, randomized, placebo-controlled treatment period. After confirmation of qualifying fasting LDL-C and TG values, eligible patients entered a 12-week, randomized, double-blind treatment period. At Visit 4 (Week 0), patients were randomly assigned to 1 of the following treatment groups: • >96% E-EPA 2 g daily, • >96% E-EPA 4 g daily, or • Placebo. >96% E-EPA was provided in 1 g liquid-filled, oblong, gelatin capsules. The matching placebo capsule was filled with light liquid paraffin and contained 0 g of >96% E-EPA. >96% E-EPA capsules were to be taken with food (i.e. with or at the end of a meal). During the double-blind treatment period, patients were to take 2 capsules (>96% E-EPA or matching placebo) in the morning and 2 capsules in the evening for a total of 4 capsules per day. • Patients in the >96% E-EPA 2 g/day treatment group received 1 >96% E-EPA 1 g capsule and 1 matching placebo capsule in the morning and in the evening. • Patients in the >96% E-EPA 4 g/day treatment group received 2 >96% E-EPA 1 g capsules in the morning and evening. The primary efficacy variable for the double-blind treatment period was percent change in TG from baseline to Week 12 endpoint. […]

[1] = 2 g/day, Baseline TG <259 mg/dl
[2] = 2 g/day, Baseline TG ≥259 mg/dl
[3] = 2 g/day, Lower Statin Intensity
[4] = 2 g/day, Medium and Higher Statin Intensity
[5] = 4 g/day, Baseline TG <259 mg/dl
[6] = 4 g/day, Baseline TG ≥259 mg/dl
[7] = 4 g/day, Lower Statin Intensity
[8] = 4 g/day, Medium and Higher Statin Intensity

CC/C=C\C/C=C\C/C=C\C/C=C\C/C=C\CCCC(=O)OCC [AMR101, ethyl-EPA]
RLP-C compared to placebo (2 g/day treatment group, 12 weeks): reduced RLP-C compared to placebo | Median Change from Baseline in RLP-C vs. Placebo [1]: −16.4% | RLP-C Concentration Change [1]: −8.1% | RLP-C Concentration Baseline [1]: 11.5 mg/dL | RLP-C Concentration End of Treatment [1]: 11.0 mg/dL | Median Change from Baseline in RLP-C vs. Placebo [2]: −18.0% | RLP-C Concentration Change [2]: −17.4% | RLP-C Concentration Baseline [2]: 18.0 mg/dL | RLP-C Concentration End of Treatment [2]: 13.5 mg/dL | Median Change from Baseline in RLP-C vs. Placebo (2 g/day, ITT): −16.7% | RLP-C Concentration Change (2 g/day, ITT): −11.1% | RLP-C Concentration Baseline (2 g/day, ITT): 15.0 mg/dL | RLP-C Concentration End of Treatment (2 g/day, ITT): 11.0 mg/dL | Median Change from Baseline in RLP-C vs. Placebo [3]: 2.7% | RLP-C Concentration Change [3]: −11.1% | RLP-C Concentration Baseline [3]: 15.0 mg/dL | RLP-C Concentration End of Treatment [3]: 11.0 mg/dL | Median Change from Baseline in RLP-C vs. Placebo [4]: −17.3% | RLP-C Concentration Change [4]: −11.1% | RLP-C Concentration Baseline [4]: 15.0 mg/dL | RLP-C Concentration End of Treatment [4]: 11.0 mg/dL | median placebo-adjusted reduction in RLP-C (4 g/day treatment group, 12 weeks, p=0.0001, stated as reduction): 25.8% | reductions in RLP-C compared to baseline (4 g/day treatment group, 12 weeks, stated as reduction): 24.0% | Median Change from Baseline in RLP-C vs. Placebo [5]: −22.2% | RLP-C Concentration Change [5]: −16.0% | RLP-C Concentration Baseline [5]: 11.0 mg/dL | RLP-C Concentration End of Treatment [5]: 9.0 mg/dL | Median Change from Baseline in RLP-C vs. Placebo [6]: −30.6% | RLP-C Concentration Change [6]: −31.3% | RLP-C Concentration Baseline [6]: 17.0 mg/dL | RLP-C Concentration End of Treatment [6]: 11.0 mg/dL | Median Change from Baseline in RLP-C vs. Placebo (4 g/day, ITT): −25.8% | RLP-C Concentration Change (4 g/day, ITT): −24.0% | RLP-C Concentration Baseline (4 g/day, ITT): 13.5 mg/dL | RLP-C Concentration End of Treatment (4 g/day, ITT): 10.0 mg/dL | Median Change from Baseline in RLP-C vs. Placebo [7]: −11.9% | RLP-C Concentration Change [7]: −29.2% | RLP-C Concentration Baseline [7]: 16.0 mg/dL | RLP-C Concentration End of Treatment [7]: 15.0 mg/dL | Median Change from Baseline in RLP-C vs. Placebo [8]: −26.7% | RLP-C Concentration Change [8]: −23.1% | RLP-C Concentration Baseline [8]: 13.0 mg/dL | RLP-C Concentration End of Treatment [8]: 10.0 mg/dL | RLP-C reductions by statin intensity (subjects on moderate- to high-intensity statin therapy compared to lower-intensity statin therapy): greater RLP-C reductions
